Test results as given in article PMC10657792, “Downstream Allosteric Modulation of NMDA Receptors by 3-Benzazepine Derivatives” (Molecular Neurobiology, 2023).
Values after ≈ are worked out from the molar mass of the structure shown. Values joined by “and” are separate entries in the source; they are usually repeats but may differ in a detail not shown here. Equal entries are not always repeated.

Experiments:
GluN1a wt/ GluN2B wt = GluN1a wt/ GluN2B wt (Rattus norvegicus, UniProt P35439+Q00960); assay: TEVC recording in X. laevis oocytes in the presence of agonists and 200 µM spermine; assay type: cell-based; details: agonists + 200 µM spermine; fitted curve
Experimental: (§1) The NMDAR was expressed in stage V and VI oocytes originated from X. laevis. Oocytes were provided by Ecocyte Bioscience (Dortmund, Germany), and equimolar amounts of wild-type and mutated GluN1 and GluN2B cRNA were injected (0.8 ng each). The oocytes were incubated in Barth’s solution, containing (mmol l^−1): 88 NaCl, 1 KCl, 0.4 CaCl2, 0.33 Ca(NO3)2, 0.6 MgSO4, 5 TRIS–HCl, 2.4 NaHCO3, supplemented with 80 mg l^−1 theophylline, 63 mg l^−1 benzylpenicillin, 40 mg l^−1 streptomycin, and 100 mg l^−1 gentamycin and maintained at 18 °C until usage. After injection, the oocytes were incubated for 5 days at 18 °C. Subsequently, the activity of the expressed NMDARs in the oocytes was recorded by two-electrode voltage clamp (TEVC).
(§2) The compounds were retrieved as 10 mM stock solutions in DMSO and were subsequently diluted with agonist solution and adjusted to 0.1% DMSO concentration. Inhibition of each compound was measured via TEVC in X. laevis oocytes at room temperature using a Turbo Tec 10CX amplifier (NPI electronic, Tamm, Germany), NI USB 6221 DA/AD Interface (National Instruments, Austin, USA), and GePulse Software (Dr. Michael Pusch, Genova, Italy). Ba^2+-Ringer, consisting of 10 mM HEPES, 90 mM NaCl, 1 mM KCl, and 1.5 mM BaCl2, adjusted to pH 7.4, was used for TEVC measurements. Agonist solution containing 10 µM glycine and 10 µM (S)-glutamate was prepared in Ba^2+-Ringer, and the measurements were performed at a holding potential of − 70 mV, using electrodes with a glass capillary filled with 3 M KCl and a resistance between 0.5 and 1.5 MΩ. […] Example traces for all recorded conditions can be found in Supplementary Figs. S2–S9.
(§3) TEVC data were analyzed using Ana (Dr. Michael Pusch, Genova, Italy), and statistics were performed using OriginPro 2020 (OriginLab Corporation, Northampton, USA). The inhibitory effect of each compound is calculated using the following equation: inhibition=1-Ic-Ih/Ia-Ih where Ih describes the current in the absence of agonists; Ia represents the steady-state current in the presence of the agonists; and Ic is defined as the steady-state after binding of agonist and compound. […] Data were statistically analyzed by one-way ANOVA and Tukey post-hoc mean comparison test in OriginPro 2020 (OriginLab Corporation, Northampton, USA). p values are indicated by * for p < 0.05, ** for p < 0.01, and *** for p < 0.001.
(§4) The NMDAR is probably modulated by polyamines such as spermine and spermidine in a similar way to exon 5 [22]. As described above, we recorded GluN1-1a/GluN2B and GluN1-1b/GluN2B expressing oocytes with 200 µM spermine and ascending concentrations of (R)-OF-NB1, to examine if the allosteric effects are mechanically in conjunction or can be potentiated. […]

GluN1b wt/ GluN2B wt = GluN1b wt/ GluN2B wt (Rattus norvegicus, UniProt P35439+Q00960); assay: as above; assay type: cell-based; details: agonists + 200 µM spermine; fitted curve
Experimental: as §1, §2, §3, §4

GluN1a wt/ GluN2B E236A = GluN1a wt/ GluN2B E236A (Rattus norvegicus, UniProt P35439+Q00960, E236A); assay: TEVC recording in X. laevis oocytes, GluN2B mutant screening; assay type: cell-based; details: fitted curve
GluN1b wt/ GluN2B F114A = GluN1b wt/ GluN2B F114A (Rattus norvegicus, UniProt P35439+Q00960, F114A); assay: as above; assay type: cell-based; details: fitted curve
Sequence of GluN1b wt/ GluN2B F114A (Q00960 27-1482 F114A, other chains not shown): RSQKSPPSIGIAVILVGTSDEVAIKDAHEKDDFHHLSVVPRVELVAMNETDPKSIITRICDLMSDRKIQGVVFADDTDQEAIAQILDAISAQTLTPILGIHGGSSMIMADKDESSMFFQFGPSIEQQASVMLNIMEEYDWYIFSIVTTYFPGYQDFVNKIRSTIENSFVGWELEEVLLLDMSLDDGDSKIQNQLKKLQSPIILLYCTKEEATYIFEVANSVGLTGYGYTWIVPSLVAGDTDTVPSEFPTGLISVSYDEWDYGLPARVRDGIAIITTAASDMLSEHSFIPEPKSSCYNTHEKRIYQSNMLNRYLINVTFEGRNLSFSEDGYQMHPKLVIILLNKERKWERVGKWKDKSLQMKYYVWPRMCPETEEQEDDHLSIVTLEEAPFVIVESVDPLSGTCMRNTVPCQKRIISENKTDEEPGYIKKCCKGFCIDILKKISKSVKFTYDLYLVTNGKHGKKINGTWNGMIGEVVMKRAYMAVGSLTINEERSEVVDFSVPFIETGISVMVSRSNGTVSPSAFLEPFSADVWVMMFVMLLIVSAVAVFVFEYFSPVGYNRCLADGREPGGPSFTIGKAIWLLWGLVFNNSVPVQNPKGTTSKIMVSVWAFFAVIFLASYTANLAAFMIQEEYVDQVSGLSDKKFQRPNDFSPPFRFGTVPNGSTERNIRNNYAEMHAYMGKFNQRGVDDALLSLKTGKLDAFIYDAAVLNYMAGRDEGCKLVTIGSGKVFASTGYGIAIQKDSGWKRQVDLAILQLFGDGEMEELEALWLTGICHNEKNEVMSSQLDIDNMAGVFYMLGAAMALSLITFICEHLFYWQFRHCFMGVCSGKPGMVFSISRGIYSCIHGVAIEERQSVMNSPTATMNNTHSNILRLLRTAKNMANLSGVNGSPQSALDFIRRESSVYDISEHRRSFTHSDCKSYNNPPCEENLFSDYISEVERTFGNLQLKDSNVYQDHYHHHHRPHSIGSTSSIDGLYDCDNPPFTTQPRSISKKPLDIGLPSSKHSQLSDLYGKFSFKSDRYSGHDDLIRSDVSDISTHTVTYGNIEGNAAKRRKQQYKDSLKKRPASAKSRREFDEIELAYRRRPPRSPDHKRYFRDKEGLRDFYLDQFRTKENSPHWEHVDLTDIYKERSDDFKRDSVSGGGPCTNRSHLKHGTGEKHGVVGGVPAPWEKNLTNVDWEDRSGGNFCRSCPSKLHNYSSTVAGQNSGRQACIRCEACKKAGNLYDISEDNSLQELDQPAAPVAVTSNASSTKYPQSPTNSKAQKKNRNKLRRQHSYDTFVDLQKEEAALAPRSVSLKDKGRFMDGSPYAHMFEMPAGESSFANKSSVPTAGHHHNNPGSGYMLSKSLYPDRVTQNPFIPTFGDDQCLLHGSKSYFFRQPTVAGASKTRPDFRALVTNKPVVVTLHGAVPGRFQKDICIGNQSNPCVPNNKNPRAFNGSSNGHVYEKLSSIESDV
Experimental: (§5) Single point mutations were incorporated into template DNA (GluN1-1b wt/ pSGEM and GluN2B wt/ pSGEM) by using the QuikChange II XL site-directed mutagenesis kit (Agilent Technologies, Germany). Mutagenesis primers were designed using the QuikChange Primer Design Program (Agilent) and provided by Microsynth (Microsynth AG, Balgach, Switzerland). For mutation of the desired amino acid in the gene, PCR amplification was performed with the respective mutagenesis primers (Eppendorf MasterCycler Gradient, Eppendorf Hamburg, Germany). Mutations were verified by automated DNA sequencing. Constructs were linearized with PacI (GluN1) or NheI (GluN2B). cRNA was prepared byin vitrotranscription using the mMessage mMachine T7 kit (Life Technologies, Darmstadt, Germany).
as §1
(§6) The compounds were retrieved as 10 mM stock solutions in DMSO and were subsequently diluted with agonist solution and adjusted to 0.1% DMSO concentration. Inhibition of each compound was measured via TEVC in X. laevis oocytes at room temperature using a Turbo Tec 10CX amplifier (NPI electronic, Tamm, Germany), NI USB 6221 DA/AD Interface (National Instruments, Austin, USA), and GePulse Software (Dr. Michael Pusch, Genova, Italy). Ba^2+-Ringer, consisting of 10 mM HEPES, 90 mM NaCl, 1 mM KCl, and 1.5 mM BaCl2, adjusted to pH 7.4, was used for TEVC measurements. Agonist solution containing 10 µM glycine and 10 µM (S)-glutamate was prepared in Ba^2+-Ringer, and the measurements were performed at a holding potential of − 70 mV, using electrodes with a glass capillary filled with 3 M KCl and a resistance between 0.5 and 1.5 MΩ. The compounds were tested by applying ascending concentrations, ranging from 1 to 30,000 nM, in at least six oocytes. Example traces for all recorded conditions can be found in Supplementary Figs. S2–S9.
(§7) TEVC data were analyzed using Ana (Dr. Michael Pusch, Genova, Italy), and statistics were performed using OriginPro 2020 (OriginLab Corporation, Northampton, USA). The inhibitory effect of each compound is calculated using the following equation: inhibition=1-Ic-Ih/Ia-Ih where Ih describes the current in the absence of agonists; Ia represents the steady-state current in the presence of the agonists; and Ic is defined as the steady-state after binding of agonist and compound. All dose response curves are fitted to the following logistic equation: y=A1-A2/1+x/x0^p+A2 where A1 describes the minimal inhibition of a compound and was set to 0; A2 represents the maximal inhibition of a compound; p is the slope of the curve; x0 is defined as the concentration at half-maximal inhibition; and x is the tested concentration. Data were statistically analyzed by one-way ANOVA and Tukey post-hoc mean comparison test in OriginPro 2020 (OriginLab Corporation, Northampton, USA). p values are indicated by * for p < 0.05, ** for p < 0.01, and *** for p < 0.001.

GluN1b wt/ GluN2B N192A = GluN1b wt/ GluN2B N192A (Rattus norvegicus, UniProt P35439+Q00960, N192A); assay: as above; assay type: cell-based
Sequence of GluN1b wt/ GluN2B N192A (Q00960 27-1482 N192A, other chains not shown): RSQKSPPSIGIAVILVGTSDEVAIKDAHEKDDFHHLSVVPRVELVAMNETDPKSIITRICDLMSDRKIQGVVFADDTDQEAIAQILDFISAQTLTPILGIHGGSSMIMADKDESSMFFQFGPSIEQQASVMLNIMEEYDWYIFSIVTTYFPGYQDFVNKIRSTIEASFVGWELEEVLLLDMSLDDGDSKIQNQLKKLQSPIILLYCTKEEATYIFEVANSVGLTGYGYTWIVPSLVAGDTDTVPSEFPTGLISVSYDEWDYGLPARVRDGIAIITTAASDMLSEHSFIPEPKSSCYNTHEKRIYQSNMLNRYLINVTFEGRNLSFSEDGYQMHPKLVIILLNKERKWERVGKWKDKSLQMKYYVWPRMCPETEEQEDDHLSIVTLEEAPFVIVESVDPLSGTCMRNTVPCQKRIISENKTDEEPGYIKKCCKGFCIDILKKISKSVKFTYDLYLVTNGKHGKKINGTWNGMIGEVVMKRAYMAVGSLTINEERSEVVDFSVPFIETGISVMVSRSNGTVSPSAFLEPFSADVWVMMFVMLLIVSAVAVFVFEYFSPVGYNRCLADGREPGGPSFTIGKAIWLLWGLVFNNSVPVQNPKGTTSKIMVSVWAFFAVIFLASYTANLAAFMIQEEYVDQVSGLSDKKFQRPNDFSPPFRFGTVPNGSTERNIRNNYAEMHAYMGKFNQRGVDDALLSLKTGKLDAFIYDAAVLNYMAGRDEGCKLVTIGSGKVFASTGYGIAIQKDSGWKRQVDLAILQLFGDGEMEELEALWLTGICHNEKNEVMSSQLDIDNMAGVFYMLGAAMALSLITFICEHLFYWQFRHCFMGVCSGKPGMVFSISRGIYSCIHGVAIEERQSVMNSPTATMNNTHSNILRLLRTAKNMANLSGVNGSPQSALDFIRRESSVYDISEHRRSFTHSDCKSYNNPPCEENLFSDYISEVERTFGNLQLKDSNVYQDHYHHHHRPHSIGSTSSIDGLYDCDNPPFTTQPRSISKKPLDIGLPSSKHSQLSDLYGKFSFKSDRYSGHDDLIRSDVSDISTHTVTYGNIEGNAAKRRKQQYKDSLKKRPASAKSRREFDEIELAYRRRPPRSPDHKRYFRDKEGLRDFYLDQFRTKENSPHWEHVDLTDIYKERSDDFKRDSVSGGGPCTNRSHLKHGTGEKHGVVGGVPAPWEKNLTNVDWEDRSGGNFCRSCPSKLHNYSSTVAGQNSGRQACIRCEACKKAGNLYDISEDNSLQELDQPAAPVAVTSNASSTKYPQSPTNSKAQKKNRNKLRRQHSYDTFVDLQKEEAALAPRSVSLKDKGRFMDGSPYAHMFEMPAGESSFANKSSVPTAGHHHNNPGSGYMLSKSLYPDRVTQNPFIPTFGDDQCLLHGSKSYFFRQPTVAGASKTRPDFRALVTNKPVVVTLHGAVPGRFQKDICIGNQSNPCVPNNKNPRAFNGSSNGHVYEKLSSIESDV
Experimental: as §5, §1, §6, §7

GluN1a wt/ GluN2B N192A = GluN1a wt/ GluN2B N192A (Rattus norvegicus, UniProt P35439+Q00960, N192A); assay: as above; assay type: cell-based; details: for inhibition (%): GluN1-1a GluN2B N192A, single oocytes
Sequence of GluN1a wt/ GluN2B N192A (Q00960 27-1482 N192A, other chains not shown): as above

[1] = Solubility limit in TEVC compound solution; assay type: physicochemical; details: higher concentrations could not be tested in TEVC
GluN1a wt/ GluN2B Q110A = GluN1a wt/ GluN2B Q110A (Rattus norvegicus, UniProt P35439+Q00960, Q110A); assay: TEVC recording in X. laevis oocytes, GluN2B mutant screening; assay type: cell-based; details: fitted curve
[2] = agonists 10 µM glycine + 10 µM (S)-glutamate
[3] = agonists 10 µM glycine + 10 µM (S)-glutamate, fitted curve

Hill coefficient (GluN1a wt/ GluN2B wt): 1.4
IC50 (GluN1a wt/ GluN2B wt): 359 nM
Hill coefficient (GluN1b wt/ GluN2B wt): 1.8
IC50 (GluN1b wt/ GluN2B wt): 522 nM
IC50 (GluN1a wt/ GluN2B E236A; [2]): 232 nM
Hill coefficient (GluN1a wt/ GluN2B E236A): 1.1
IC50 (GluN1b wt/ GluN2B F114A; [2]): 14200 nM
Hill coefficient (GluN1b wt/ GluN2B F114A): 0.9
inhibition at 10 µM (GluN1b wt/ GluN2B N192A; GluN1-1b GluN2B N192A, compound concentration 10 μM, single oocytes): 69.9%
inhibition at 30 µM (GluN1b wt/ GluN2B N192A; GluN1-1b GluN2B N192A, compound concentration 30 μM, single oocytes): 76.3%
IC50 (GluN1b wt/ GluN2B N192A; [3]): 567 nM
Hill coefficient (GluN1b wt/ GluN2B N192A; fitted curve): 1.3
IC50 (GluN1a wt/ GluN2B N192A; [3]): 282 nM
Hill coefficient (GluN1a wt/ GluN2B N192A; fitted curve): 0.4
solubility [1]: 30 µM (≈ 9.88 µg/mL)
IC50 (GluN1a wt/ GluN2B Q110A; [2]): 210 nM
Hill coefficient (GluN1a wt/ GluN2B Q110A): 5.4
SMILES: Oc1ccc2c(c1)CCN(CCCCc1ccccc1F)C[C@@H]2O [(R)-OF-NB1]
inhibition (%) (GluN1a wt/ GluN2B N192A; compound concentration 1 μM, 1 µM): 66.1572% and 79.6651% and 73.3591% and 75.5102% and 40.4665% and 73.3363% and 63.7681%
inhibition (%) (GluN1a wt/ GluN2B N192A; compound concentration 10 μM, 10 µM): 77.2198% and 89.4737% and 79.5367% and 82.6531% and 48.1744% and 82.1493% and 73.43%
inhibition (%) (GluN1a wt/ GluN2B N192A; compound concentration 30 μM, 30 µM): 83.1878% and 94.0191% and 84.556% and 89.7959% and 61.6633% and 86.6457% and 82.1256%
